# pIC50: −log10 of the molar value. Structures can show the parent of a compound that is named as a salt. Where two headings read alike, the source gives them in different places.
# Tests used:
# NCI-H1417 cells = assay: In vitro cell proliferation detection (CellTiter-Glo, 7 days); assay type: cell-based; conditions: for pIC50: NCI-H1417 cells, 7 days, CellTiter-Glo, read-out: NCI-H1417 proliferation inhibition IC50
# LSD1 = LSD1 (Homo sapiens (Human), UniProt O60341); assay: LSD1 enzyme activity detection (HTRF); assay type: biochemical; conditions: read-out: Inhibition of enzymatic activity of LSD1 IC50
Compound,"pIC50 (LSD1; HTRF, H3K4me1 substrate)",other results
"Cc1ccc(-c2c(-c3ccc(C#N)cc3)nc3c(N4CCC[C@@H](N)C4)nccn23)cc1 [Example 5, (R)-4-(8-(3-aminopiperidin-1-yl)-3-(p-tolyl)imidazo[1,2-a]pyrazin-2-yl)benzonitrile hydrochloride]",,"IC50 (NCI-H1417 cells; Homo sapiens, NCI-H1417, 168 h, read-out: NCI-H1417 proliferation inhibition IC50(nM)): 165 nM"
"N#Cc1ccc(-c2nc(N3CCC(N)CC3)cc(O)c2-c2ccc3[nH]nc(Cl)c3c2)cc1F [Example 20, hydrochloride]",,pIC50 (LSD1): 6.78
"CC(C)(O)Cn1ncc2cc(F)c(-c3c(O)cc(N4CCC(N)CC4)nc3-c3ccc(C#N)c(F)c3)cc21 [Example 28, hydrochloride]",6.36,
"N#Cc1ccc(-c2nc(N3CCC(N)CC3)cc(O)c2-c2ccc3c(c2)OC(F)(F)O3)cc1F [Example 30, 4-(6-(4-aminopiperidin-1-yl)-3-(2,2-difluorobenzo[d][1,3]dioxol-5-yl)-4-hydroxypyridin-2-yl)-2-fluorobenzonitrile hydrochloride]",6.67,
"COc1ccc(-c2c(O)cc(N3CCC(N)CC3)nc2-c2ccc(C#N)c(F)c2)cc1OC [Example 33, 4-(6-(4-aminopiperidin-1-yl)-3-(3,4-dimethoxyphenyl)-4-hydroxypyridin-2-yl)-2-fluorobenzonitrile hydrochloride]",6.68,
"COc1ccc(-c2c(O)cc(NC3CCNCC3)nc2-c2ccc(C#N)c(F)c2)cc1F [Example 40, 2-fluoro-4-(3-(3-fluoro-4-methoxyphenyl)-4-hydroxy-6-(piperidin-4-ylamino)pyridin-2-yl)benzonitrile]",6.55,
"COc1ccc(Nc2c(O)cc(N3CCC(N)CC3)nc2-c2ccc(C#N)c(F)c2)cc1F [Example 64, 4-(6-(4-aminopiperidin-1-yl)-3-(3-fluoro-4-methoxyphenyl)amino)-4-hydroxypyridin-2-yl)-2-flu orobenzonitrile hydrochloride]",,"pIC50 (NCI-H1417 cells; Homo sapiens, 168 h): 6.46"
"COc1ccc(-c2cnc(N3CC4CCC(C3)C4N)c(C#N)c2-c2ccc(C#N)c(F)c2)cc1O (centres unmarked) [Example 74, 2-(8-amino-3-azabicyclo[3.2.1]octane-3-yl)-4-(4-cyano-3-fluorophenyl)-5-(3-hydroxy-4-methoxyphenyl) nicotinonitrile]",6.78,
"COc1ccc(-c2cnc(N3C4CCCC3CC(N)C4)c(C#N)c2-c2ccc(C#N)c(F)c2)cc1O (centres unmarked) [Example 75, 2-(3-amino-9-azabicyclo [3.3.1]nonan-9-yl)-4-(4-cyano-3-fluorophenyl)-5-(3-hydroxy-4-methoxyphenyl) nicotinonitrile]",6.30,
"COc1ccc(-c2cnc(N3C4CCC3CC(N)C4)c(C#N)c2-c2ccc(C#N)c(F)c2)cc1O (centres unmarked) [Example 81, 2-(3-amino-8-azabicyclo [3.2.1]octane-8-yl)-4-(4-cyano-3-fluorophenyl)-5-(3-hydroxy-4-methoxyphenyl) nicotinonitrile]",6.17,
"Cc1noc2cc(-c3c(OCc4ccccc4)cc(N4C5CCC4CC(N)C5)nc3-c3ccc(C#N)c(F)c3)c(F)cc12 (centres unmarked) [Example 88, 4-(6-(3-amino-8-azabicyclo [3.2.1]octane-8-yl)-4-(benzyloxy)-3-(5-fluoro-3-methylbenzo[d]isoxazol-6-yl)pyridin-2-yl)-2-fluorobenzonitrile]",6.25,
"COc1ccc(-c2cc(N3CCC(N)CC3)nc(-c3ccc(C#N)c(F)c3)c2OC)cc1F [Example 102, 4-(6-(4-aminopiperidin-1-yl)-4-(3-fluoro-4-methoxyphenyl)-3-methoxypyridin-2-yl)-2-fluoroben zonitrile]",6.15,
"COc1cc(-c2c(-c3ccc(C#N)c(F)c3)nc(N3CCC(N)CC3)n3ccnc23)ccc1O [Example 141, 4-(5-(4-aminopiperidin-1-yl)-8-(4-hydroxy-3-methoxyphenyl)imidazolo[1,2-c]pyrimidin-7-yl)-2-fluorobenzonitrile formate]",6.65,
"COc1ccc(-c2c(C3CCC(C#N)CC3)nc(N3C4CCC3CC(N)C4)n3ccnc23)cc1F (centres unmarked) [Example 179, 4-(5-(3-amino-8-azadicyclo [3.2.1]octane-8-yl)-8-(3-fluoro-4-methoxyphenyl)imidazolo[1,2-c]pyrimidin-7-yl) cyclohexane-1-carbonitrile hydrochloride]",6.03,
"COc1ccc(-c2c(-c3cnc(C#N)nc3)nc(N3C4CCC3CC(N)C4)n3ccnc23)cc1F (centres unmarked) [Example 180, 5-(5-(3-amino-8-azabicyclo [3.2.1]octane-8-yl)-8-(3-fluoro-4-methoxyphenyl)imidazolo[1,2-c]pyrimidin-7-yl) pyrimidin-2-carbonitrile]",7.11,
"COc1ccc(-c2c(-c3ccc(C#N)c(C#N)c3)nc(N3C4CCC3CC(N)C4)n3ccnc23)cc1F (centres unmarked) [Example 181, 4-(5-(3-amino-8-azabicyclo [3.2.1]octane-8-yl)-8-(3-fluoro-4-methoxyphenyl)imidazolo[1,2-c]pyrimidin-7-yl) phthalonitrile hydrochloride]",6.72,

Compound,"pIC50 (LSD1; HTRF, H3K4me1 substrate)",other results
"COc1ccc(-c2c(-c3ccc(C#N)c(C)c3)nc(N3C4CCC3CC(N)C4)n3ccnc23)cc1F (centres unmarked) [Example 184, 4-(5-(3-amino-8-azabicyclo[3.2.1]octane-8-yl)-8-(3-fluoro-4-methoxyphenyl)imidazolo[1,2-c]pyrimidin-7-yl)-2-methylbenzonitrile hydrochloride]",6.96,
"Cc1ccc(-c2c(-c3ccc(C#N)cc3)cc3c(N4CCCCC4)nccn23)cc1 [Example 191, 4-(1-(piperidin-1-yl)-6-(p-tolyl)pyrrolo[1,2-a]pyrazin-7-yl)benzonitrile]",6.98,
"Cc1ccc(-c2c(-c3ccc(C#N)cc3)cc3c(N4CCN(C)CC4)nncn23)cc1 [Example 195, 4-(1-(4-methylpiperazin-1-yl)-6-(p-tolyl)pyrrolo[1,2-d][1,2,4]triazine-7-yl)benzonitrile]",6.68,
"Cc1ccc(-c2c(-c3ccc(C#N)cc3)cc3c(N4CCC(N)CC4)ccnn23)cc1 [Example 198, hydrochloride]",6.76,
"Cc1noc2cc(-c3sc(C(=O)N4C5CCC4CC(N)C5)cc3-c3ccc4cn[nH]c4c3)c(F)cc12 (centres unmarked) [Example 205, (3-amino-8-azabicyclo [3.2.1]octane-8-yl) (5-(5-fluoro-3-methylbenzo[d]isoxazol-6-yl)-4-(1H-indazol-6-yl)thiophen-2-yl)methanone hydrochloride]",6.04,
"Cc1noc2cc(-c3sc(C(=O)N4C5CCC4CC(N)C5)cc3-c3cncnc3)c(F)cc12 (centres unmarked) [Example 206, (3-amino-8-azabicyclo [3.2.1]octan-8-yl)(5-(5-fluoro-3-methylbenzo[d]isoxazol-6-yl)-4-(pyrimidine-5-yl)thiophen-2-yl) methanone hydrochloride]",6.36,
"Cc1noc2cc(-c3sc(C(=O)N4C5CCC4CC(N)C5)cc3-c3ccccc3)c(F)cc12 (centres unmarked) [Example 207, (3-amino-8-azabicyclo [3.2.1]octan-8-yl)(5-(5-fluoro-3-methylbenzo[d]isoxazol-6-yl)-4-phenyithio-phene-2-yl)methanone hydrochloride]",5.90,
"Cc1noc2cc(-c3sc(C(=O)N4C5CCC4CC(N)C5)cc3-c3cccnc3)c(F)cc12 (centres unmarked) [Example 208, (3-amino-8-azabicyclo [3.2.1]octan-8-yl) (5-(5-fluoro-3-methylbenzo [d]isoxazol-6-yl)-4-(pyridin-3-yl)thiophen-2-yl) methanone hydrochloride]",6.19,
"Cc1noc2cc(-c3sc(C(=O)N4C5CCC4CC(N)C5)cc3-c3ccccn3)c(F)cc12 (centres unmarked) [Example 210, (3-amino-8-azabicyclo [3.2.1]octan-8-yl)(5-(5-fluoro-3-methylbenzo[d]isoxazol-6-yl)-4-(pyridin-2-yl)thiophen-2-yl)methanone]",5.26,
Cc1noc2cc(-c3sc(C(=O)N4C5CCC4CC(N)C5)cc3-c3ncccn3)c(F)cc12 (centres unmarked) [Example 211],6.69,
"Cc1noc2cc(-c3sc(C(=O)N4C5CCC4CC(N)C5)cc3-c3ccc(S(N)(=O)=O)cc3)c(F)cc12 (centres unmarked) [Example 212, 4-(5-(3-amino-8-azabicyclo [3.2.1]octane-8-carbonyl)-2-(5-fluoro-3-methyl-benzo[d]isoxazol-6-yl)thiophen-3-yl)benzene-sulfonamide]",6.68,
"Cc1noc2cc(-c3sc(C(=O)N4C5CCC4CC(N)C5)cc3-c3ccc(S(C)(=O)=O)cc3)c(F)cc12 (centres unmarked) [Example 213, (3-amino-8-azabicyclo [3.2.1]octan-8-yl) (5-(5-fluoro-3-methylbenzo [d]isoxazol-6-yl)-4-(4-(methyldimethylsulfoxide-16-sulfonyl)phenyl)thio-phen-2-yl)methanone]",7.44,
"CS(=O)(=O)N1CCN(c2cc(CCCN[C@@H]3C[C@H]3c3ccc(F)cc3)nn(-c3ccc(C#N)cc3)c2=O)CC1 [Example 260, 4-(3-(3-((1R,2S)-2-(4-fluorophenyl)cyclopropyl)amino)-5-(4-(methylsulfonyl)piperazin-1-yl)-6-oxypyridazine-1 (6H)-yl)benzonitrile formate]",,pIC50 (NCI-H1417 cells): 7.34
"CS(=O)(=O)N1CCN(c2cc(CN[C@@H]3C[C@H]3c3ccc(F)cc3)nc(-c3ccc(N4CCOCC4)cc3)n2)CC1 [Example 265, (1R,2S)-2-(4-fluorophenyl)-N-((6-(4-(methylsulfonyl)piperazin-1-yl)-2-(4-morpholinophenyl)pyrimidin-4-yl)methyl) cyclopropane-1-amine]",6.65,
"COc1ccc(-c2nc(N3CCC(N)CC3)cc(C#N)c2-c2ccc(C#N)c(F)c2)cc1O [Example 274, 6-(4-aminopiperidin-1-yl)-3-(4-cyano-3-fluorophenyl)-2-(3-hydroxy-4-methoxyphenyl)pyridin-4-carbonitrile]",,"pIC50 (NCI-H1417 cells; Homo sapiens, 168 h): < 6.00"
"COc1ccc(-c2cc(C#N)c(N3CCC(N)CC3)nc2-c2ccc(C#N)c(F)c2)cc1O [Example 282, 2-(4-aminopiperidin-1-yl)-6-(4-cyano-3-fluorophenyl)-5-(3-hydroxy-4-methoxyphenyl)nicotinon itrile hydrochloride]",,"pIC50 (NCI-H1417 cells; Homo sapiens, 168 h): 6.87"

# From patent US20240216357A1 (SICHUAN HUIYU PHARMACEUTICAL CO., LTD., priority 2021, published 2024)
